Experiment [1] deals with mice pre-treated with reserpine. Briefly: reserpine-induced catalepsy test (bar test, catalepsy score). In kind it is in vivo, ddy mice (male). To be noted: reserpine 5 mg/kg i.p. As for the experimental part: The effects of compound (IX) in single administration and in combination with L-DOPA on cataleptic responses were examined in mice pre-treated with a monoamine-depleting drug, reserpine.
Reserpine (5 mg/kg, i.p., Apoplon Inj, Daiichi Pharmaceutical) was administrated to ddy mice (male). On the next day, compound (IX) (0.3, 1, 3 mg/kg, p.o.) with or without L-DOPA (25, 100 mg/kg, i.p., dissolved in 0.1N HCl and diluted with distilled water for injection (Otsuka Pharmaceutical)) was administrated to the mice and catalepsy test was performed after 1 hour. When L-DOPA was administrated, mice were pre-treated with carbidopa (25 mg/kg, i.p., 0.5% lactic acid) before 30 min.
The forelimbs or hindlimbs of each mouse were placed on a 4.5 cm high horizontal bar and the time was measured (cut off time 30 sec) until both legs reach the floor. The cataleptic responses were scored as follows (less than 5 sec.: 0 point, 5 sec. to less than 10 sec.: 1 point, 10 sec to less than 15 sec.: 2 points, 15 sec. to than 20 sec.: 3 points, 20 sec. to less than 25 sec.: 4 points, 25 sec. to less than 30 sec.: 5 points, 30 sec. or more: 6 points).
For forelimbs, the scores for 3 repetitive tests were summated. […] The catalepsy scores were calculated as the total scores for forelimbs and hindlimbs.

The next experiment has as its system MPTP-treated mice. As to the kind of experiment: spontaneous locomotor activity of MPTP-treated mice. It is filed as in vivo, C57BL/6 mice (male). To be noted: MPTP 40 mg/kg × 2. As for the experimental part: Mice injected with a dopaminergic toxin, MPTP were used as a model for Parkinson's disease and the effects of single administration of compound (IX) on the reduction of the spontaneous locomotor activity caused by MPTP-treatment were examined.
MPTP (40 mg/kg, i.p., saline) was injected twice at 24-hr intervals to C57BL/6 mice (male), and the day after the last administration, the mice were placed in locomotor activity measuring apparatus. After 30 min, compound (IX) alone (0.3, 1, 3 mg/kg, p.o.) was administered.

For the next experiment, the system named is normal mice. Briefly: spontaneous locomotor activity after oral administration to normal mice (SCANET). In kind it is in vivo, C57BL/6 mice (male). Also noted: spontaneous locomotor activity / spontaneous locomotor activity, Total: unit not given here. The settings on record: for spontaneous locomotor activity, Total: total for 5 hours after administration. As for the experimental part:
The enhancing effects of compound (IX) on the spontaneous locomotor activity were examined in normal mice.
Compound (IX) was orally administrated to C57BL/6 mice (male) and the spontaneous locomotor activity was measured with a locomotor activity measuring apparatus (SCANET, TOYO sangyo). Mice were familiarized to the cage of the apparatus for at least 60 min. Compound (IX) (1,3,10 mg/kg) or vehicle (vehicle, distilled water Otsuka) was administrated orally. The spontaneous locomotor activity was measured for 5 hours after the mice were returned to the cage.

Marks after values point to notes of the source that are not given here.

Regarding `N[C@@H](Cc1ccc(O)c(O)c1)C(=O)O` [L-DOPA, reference compound], the “catalepsy score, mean” value in experiment [1] (L-DOPA 100 mg/kg i.p. + solvent p.o., 1 hour after administration) amounted to 23.0.

With `C[C@@H]1OC(=O)N[C@@H]1C(=O)NC(Cc1cscn1)C(=O)N1CCC[C@H]1C` (stereo in doubt) [Compound (IX)], the “spontaneous locomotor activity, Total” value is recorded as 2731 ± 875 in the experiment with MPTP-treated mice (compound (IX) alone 0.3 mg/kg p.o.); 4370 ± 1507 with MPTP-treated mice (compound (IX) alone 1 mg/kg p.o.); 9676 in the experiment on normal mice (1 mg/kg p.o.); 16941* in the experiment with normal mice (3 mg/kg p.o., P < 0.05 vs vehicle); 44861** in the experiment on normal mice (10 mg/kg p.o., P < 0.01 vs vehicle). In addition, the spontaneous locomotor activity came out at 3737 in the experiment on normal mice (1 mg/kg p.o., Time 0–30); 436 in the experiment with normal mice (1 mg/kg p.o., Time 30–0 (before administration)); 842 in the experiment on normal mice (1 mg/kg p.o., Time 30–60); 1016 with normal mice (1 mg/kg p.o., Time 60–30 (before administration)); 1178 in the experiment on normal mice (1 mg/kg p.o., Time 60–90); 1281 in the experiment with normal mice (1 mg/kg p.o., Time 90–120). In addition, the spontaneous locomotor activity was found to be 991 in the experiment with normal mice (1 mg/kg p.o., Time 120–150); 273 in the experiment on normal mice (1 mg/kg p.o., Time 150–180); 411 with normal mice (1 mg/kg p.o., Time 180–210); 135 with normal mice (1 mg/kg p.o., Time 210–240); 463 in the experiment with normal mice (1 mg/kg p.o., Time 240–270); 366 in the experiment with normal mice (1 mg/kg p.o., Time 270–300). Besides, the spontaneous locomotor activity in the experiment with normal mice (3 mg/kg p.o., Time 0–30) was 3755; in the experiment with normal mice (3 mg/kg p.o., Time 30–0 (before administration)), 782; in the experiment with normal mice (3 mg/kg p.o., Time 30–60), 2626; in the experiment on normal mice (3 mg/kg p.o., Time 60–30 (before administration)), 2349; with normal mice (3 mg/kg p.o., Time 60–90) it was 2690; with normal mice (3 mg/kg p.o., Time 90–120), 2632. The spontaneous locomotor activity came out at 2230 in the experiment on normal mice (3 mg/kg p.o., Time 120–150); 868 in the experiment with normal mice (3 mg/kg p.o., Time 150–180); 377 in the experiment with normal mice (3 mg/kg p.o., Time 180–210); 940 with normal mice (3 mg/kg p.o., Time 210–240); 266 with normal mice (3 mg/kg p.o., Time 240–270); 597 in the experiment with normal mice (3 mg/kg p.o., Time 270–300). Moreover, the spontaneous locomotor activity came to 5910 in the experiment with normal mice (10 mg/kg p.o., Time 0–30); 401 with normal mice (10 mg/kg p.o., Time 30–0 (before administration)); 5079 with normal mice (10 mg/kg p.o., Time 30–60); 1700 in the experiment with normal mice (10 mg/kg p.o., Time 60–30 (before administration)); 5485 in the experiment on normal mice (10 mg/kg p.o., Time 60–90); 6138 in the experiment on normal mice (10 mg/kg p.o., Time 90–120). For the same molecule, the spontaneous locomotor activity is given as 5582 with normal mice (10 mg/kg p.o., Time 120–150); 5390 with normal mice (10 mg/kg p.o., Time 150–180); 4218 with normal mice (10 mg/kg p.o., Time 180–210); 3297 with normal mice (10 mg/kg p.o., Time 210–240); 2305 with normal mice (10 mg/kg p.o., Time 240–270); 1457 in the experiment with normal mice (10 mg/kg p.o., Time 270–300). In addition, in the experiment on normal mice (p.o., normal mice), the “dose that increased the spontaneous locomotor activity” value is at least 3 mg/kg. Besides, the “catalepsy score, mean” value in experiment [1] (compound (IX) 0.3 mg/kg p.o. + L-DOPA 100 mg/kg i.p., 1 hour) was determined as 17.4.
